# Values joined by “and” are separate entries in the source; they are usually repeats but may differ in a detail not shown here. Equal values may be shown once.
# Key:
# KCC3 pThr991 = test: Immunoblot of KCC site 1 phosphorylation (KCC3 Thr991) in HEK-293 cells transfected with FLAG-KCC3; assay type: cell-based, human
# KCC3 pThr1048 = test: Immunoblot of KCC site 2 phosphorylation (KCC3 Thr1048) in HEK-293 cells transfected with FLAG-KCC3; assay type: cell-based, human
# SPAK pSer373 = test: Immunoblot of SPAK/OSR1 p-Ser373/Ser325 in HEK-293 cells; assay type: cell-based, human
# Method: (§1) Band intensities were quantitated with ImageJ software. ***p < 0.001; **p < 0.01; *p < 0.05; ns, nonsignificant [by one-way ANOVA with post hoc testing (n = 6, error bars represent the mean ± SEM)].
# (§2) Thirty-six hours post transfection, cells were stimulated with either control isotonic or hypotonic medium for a period of 30 min. […] Protein concentrations were determined using the Bradford method. Cells were treated with the indicated concentrations of the SPAK/OSR1 inhibitors.
# NKCC1 pThr203/207/212 = test: Immunoblot of NKCC1 p-Thr203/Thr207/Thr212 in HEK-293 cells; assay type: cell-based, human
# Method: as §1, §2
# GST–[T233E]SPAK kinase = molecular target: T1, GST–[T233E]SPAK kinase (Homo sapiens, UniProt Q9UEW8, T231E); test: SPAK kinase assay with CATCHtide and IC50 determination; assay type: biochemical
# T1 construct: made in house; host or cells: E. coli
# Excerpt: II. Experimental procedures
# 1. Reagents and General methods
# Tissue culture reagents were from Life Technologies. P81 phosphocellulose paper was from Whatman […]
# and [γ-32P]-ATP was from Perkin Elmer. […] Protein G […]
# sepharose was from Amersham. DNA constructs used for transfection were purified from Escherichia coli DH5α using Qiagen or Invitrogen plasmid Maxi kits according to the manufacturer's protocol. All DNA constructs were verified by DNA sequencing.
# 2. Plasmids, protein expression and purification
# DNA clones were from the Division of Signal Transduction Therapy (University of Dundee). The SPAK proteins were expressed in E. Coli and purified as described previously 1.
# 3. SPAK kinase assays and IC50 determination
# SPAK kinase assays employed CATCHtide (cation chloride co-transporter peptide substrate). Peptide kinase assays, performed in triplicate, were set up in a total volume of 50 μl containing 0.5 μg GST– […]
# cpm/pmol) and the indicated concentrations of inhibitor dissolved in DMSO. After incubation for 30 min at 30°C, reactions were terminated by spotting 40 μl of the reaction mix onto P81 phosphocellulose paper and immersion in 50 mM phosphoric acid. The papers were washed extensively and incorporation of [γ-32P]ATP into CATCHtide was quantified by Cerenkov counting.
# IC50 values were calculated with GraphPad Prism using non-linear regression analysis.
# 4. Fluorescence polarization […]
# concentrations between 0.00001 to 1 mM. Data points are the means of three determinations, with error […]
# A Supplemental Fig. 7 Effects of increasing concentrations of ZT-1a on SPAK activity in the absence […]
# the absence or presence of five-fold molar excess of wild-type MO25α. b Kinetic data determined for B ZT-1a in the absence or presence of five-fold molar excess of wild-type MO25α. Data are means of […]
# presence of wild-type MO25α.
# [1] = Hypotonic low Cl, compound concentration 1 (unit not given)
# [2] = Hypotonic low Cl, compound concentration 3 (unit not given)
# [3] = Hypotonic low Cl, compound concentration 10 (unit not given)
# [4] = Isotonic control, compound concentration 1 (unit not given)
# [5] = Isotonic control, compound concentration 3 (unit not given)
# [6] = Isotonic control, compound concentration 10 (unit not given)
smiles,measurement,setting,value
Cc1cc(C(C#N)c2ccc(Cl)cc2)c(Cl)cc1NC(=O)c1ccccc1O (stereo not shown) [ZT-1b],Site-1 phospho / KCC,KCC3 pThr991; [1],0.297 and 0.278 and 0.267 and 0.28
same,Site-1 phospho / KCC,KCC3 pThr991; [2],0.255 and 0.247 and 0.261 and 0.237
same,Site-1 phospho / KCC,KCC3 pThr991; [3],0.022 and 0.031 and 0.029 and 0.035
same,Site-1 phospho / KCC,KCC3 pThr991; [4],0.198 and 0.201 and 0.187 and 0.21
same,Site-1 phospho / KCC,KCC3 pThr991; [5],0.167 and 0.17 and 0.155 and 0.16
same,Site-1 phospho / KCC,KCC3 pThr991; [6],0.095 and 0.121 and 0.114 and 0.104
same,Site-2 phospho / KCC,KCC3 pThr1048; [1],0.289 and 0.263 and 0.271 and 0.25
same,Site-2 phospho / KCC,KCC3 pThr1048; [2],0.156 and 0.183 and 0.172 and 0.162
same,Site-2 phospho / KCC,KCC3 pThr1048; [3],0.033 and 0.041 and 0.022 and 0.031
same,Site-2 phospho / KCC,KCC3 pThr1048; [4],0.184 and 0.212 and 0.196 and 0.205
same,Site-2 phospho / KCC,KCC3 pThr1048; [5],0.112 and 0.132 and 0.126 and 0.115
same,Site-2 phospho / KCC,KCC3 pThr1048; [6],0.042 and 0.039 and 0.061 and 0.053
same,pSer373 / SPAK,SPAK pSer373; [1],0.301 and 0.286 and 0.291 and 0.316
same,pSer373 / SPAK,SPAK pSer373; [2],0.183 and 0.156 and 0.163 and 0.175
same,pSer373 / SPAK,SPAK pSer373; [3],0.078 and 0.061 and 0.055 and 0.065
same,pSer373 / SPAK,SPAK pSer373; [4],0.103 and 0.127 and 0.137 and 0.117
same,pSer373 / SPAK,SPAK pSer373; [5],0.087 and 0.09 and 0.06 and 0.076
same,pSer373 / SPAK,SPAK pSer373; [6],0.055 and 0.039 and 0.041 and 0.047
same,pThrNKCC1 / NKCC1,NKCC1 pThr203/207/212; [1],0.309 and 0.287 and 0.264 and 0.27
same,pThrNKCC1 / NKCC1,NKCC1 pThr203/207/212; [2],0.122 and 0.114 and 0.1313 and 0.117
same,pThrNKCC1 / NKCC1,NKCC1 pThr203/207/212; [3],0.011 and 0.0109 and 0.016 and 0.013
same,pThrNKCC1 / NKCC1,NKCC1 pThr203/207/212; [4],0.127 and 0.118 and 0.126 and 0.123
same,pThrNKCC1 / NKCC1,NKCC1 pThr203/207/212; [5],0.034 and 0.041 and 0.048 and 0.043
same,pThrNKCC1 / NKCC1,NKCC1 pThr203/207/212; [6],0.009 and 0.007 and 0.005 and 0.006
Cc1cc(C(C#N)c2ccc(Cl)cc2)c(Cl)cc1NC(=O)c1ccccc1S (stereo not shown) [ZT-1c],Site-1 phospho / KCC,KCC3 pThr991; [1],1.35 and 1.471 and 1.65 and 1.51
same,Site-1 phospho / KCC,KCC3 pThr991; [2],1.55 and 1.21 and 1.48 and 1.3
same,Site-1 phospho / KCC,KCC3 pThr991; [3],1.012 and 0.998 and 0.867 and 0.921
same,Site-1 phospho / KCC,KCC3 pThr991; [4],1.231 and 1.321 and 1.543 and 1.43
same,Site-1 phospho / KCC,KCC3 pThr991; [5],1.091 and 0.991 and 0.86 and 0.91
same,Site-1 phospho / KCC,KCC3 pThr991; [6],0.761 and 0.69 and 0.81 and 0.61
same,Site-2 phospho / KCC,KCC3 pThr1048; [1],0.497 and 0.455 and 0.548 and 0.508
same,Site-2 phospho / KCC,KCC3 pThr1048; [2],0.209 and 0.276 and 0.192 and 0.234
same,Site-2 phospho / KCC,KCC3 pThr1048; [3],0.048 and 0.058 and 0.04 and 0.032
same,Site-2 phospho / KCC,KCC3 pThr1048; [4],0.476 and 0.401 and 0.516 and 0.551
same,Site-2 phospho / KCC,KCC3 pThr1048; [5],0.214 and 0.265 and 0.187 and 0.198
same,Site-2 phospho / KCC,KCC3 pThr1048; [6],0.065 and 0.051 and 0.044 and 0.058
same,pSer373 / SPAK,SPAK pSer373; [1],0.203 and 0.196 and 0.2213 and 0.215
same,pSer373 / SPAK,SPAK pSer373; [2],0.112 and 0.125 and 0.103 and 0.117
same,pSer373 / SPAK,SPAK pSer373; [3],0.032 and 0.051 and 0.046 and 0.039
same,pSer373 / SPAK,SPAK pSer373; [4],0.122 and 0.112 and 0.129 and 0.116
same,pSer373 / SPAK,SPAK pSer373; [5],0.075 and 0.062 and 0.048 and 0.057
same,pSer373 / SPAK,SPAK pSer373; [6],0.036 and 0.024 and 0.031 and 0.029
same,pThrNKCC1 / NKCC1,NKCC1 pThr203/207/212; [1],1.123 and 1.265 and 1.316 and 1.19
same,pThrNKCC1 / NKCC1,NKCC1 pThr203/207/212; [2],0.587 and 0.521 and 0.402 and 0.467
same,pThrNKCC1 / NKCC1,NKCC1 pThr203/207/212; [3],0.215 and 0.209 and 0.187 and 0.193
same,pThrNKCC1 / NKCC1,NKCC1 pThr203/207/212; [4],0.43 and 0.561 and 0.501 and 0.592
same,pThrNKCC1 / NKCC1,NKCC1 pThr203/207/212; [6],0.05 and 0.036 and 0.066 and 0.049
"CN[C@@H]1C[C@H]2O[C@@](C)([C@@H]1OC)n1c3ccccc3c3c4c(c5c6ccccc6n2c5c31)C(=O)NC4 [staurosporine, reference compound]",SPAK kinase activity signal (Fig S3 source data),"GST–[T233E]SPAK kinase; ATP 0.01 mM, inhibitor 1e-5 uM",880 and 902
same,SPAK kinase activity signal (Fig S3 source data),"GST–[T233E]SPAK kinase; ATP 0.01 mM, inhibitor 0.0001 uM",874
same,SPAK kinase activity signal (Fig S3 source data),"GST–[T233E]SPAK kinase; ATP 0.01 mM, inhibitor 0.001 uM",875
same,SPAK kinase activity signal (Fig S3 source data),"GST–[T233E]SPAK kinase; ATP 0.01 mM, inhibitor 0.03 uM",535 and 689 and 604
same,SPAK kinase activity signal (Fig S3 source data),"GST–[T233E]SPAK kinase; ATP 0.01 mM, inhibitor 0.1 uM",405 and 495 and 442
same,SPAK kinase activity signal (Fig S3 source data),"GST–[T233E]SPAK kinase; ATP 0.01 mM, inhibitor 0.3 uM",385 and 459 and 417
same,SPAK kinase activity signal (Fig S3 source data),"GST–[T233E]SPAK kinase; ATP 0.01 mM, inhibitor 1 uM",408 and 363
same,SPAK kinase activity signal (Fig S3 source data),"GST–[T233E]SPAK kinase; ATP 0.01 mM, inhibitor 10 uM",206 and 221
same,SPAK kinase activity signal (Fig S3 source data),"GST–[T233E]SPAK kinase; ATP 0.01 mM, inhibitor 100 uM",109 and 126
same,SPAK kinase activity signal (Fig S3 source data),"GST–[T233E]SPAK kinase; ATP 0.01 mM, inhibitor 1000 uM",95 and 64 and 75
same,SPAK kinase activity signal (Fig S3 source data),"GST–[T233E]SPAK kinase; ATP 0.1 mM, inhibitor 1e-5 uM",880 and 897
same,SPAK kinase activity signal (Fig S3 source data),"GST–[T233E]SPAK kinase; ATP 0.1 mM, inhibitor 0.0001 uM",874
same,SPAK kinase activity signal (Fig S3 source data),"GST–[T233E]SPAK kinase; ATP 0.1 mM, inhibitor 0.001 uM",875 and 869
same,SPAK kinase activity signal (Fig S3 source data),"GST–[T233E]SPAK kinase; ATP 0.1 mM, inhibitor 0.03 uM",715
same,SPAK kinase activity signal (Fig S3 source data),"GST–[T233E]SPAK kinase; ATP 0.1 mM, inhibitor 0.1 uM",705 and 625 and 675
same,SPAK kinase activity signal (Fig S3 source data),"GST–[T233E]SPAK kinase; ATP 0.1 mM, inhibitor 0.3 uM",565 and 509 and 529
same,SPAK kinase activity signal (Fig S3 source data),"GST–[T233E]SPAK kinase; ATP 0.1 mM, inhibitor 1 uM",453 and 458 and 431
same,SPAK kinase activity signal (Fig S3 source data),"GST–[T233E]SPAK kinase; ATP 0.1 mM, inhibitor 3 uM",389 and 363
same,SPAK kinase activity signal (Fig S3 source data),"GST–[T233E]SPAK kinase; ATP 0.1 mM, inhibitor 100 uM",112 and 127
same,SPAK kinase activity signal (Fig S3 source data),"GST–[T233E]SPAK kinase; ATP 0.1 mM, inhibitor 1000 uM",114 and 95
same,SPAK kinase activity signal (Fig S3 source data),"GST–[T233E]SPAK kinase; ATP 1 mM, inhibitor 1e-5 uM",880
same,SPAK kinase activity signal (Fig S3 source data),"GST–[T233E]SPAK kinase; ATP 1 mM, inhibitor 0.0001 uM",874
same,SPAK kinase activity signal (Fig S3 source data),"GST–[T233E]SPAK kinase; ATP 1 mM, inhibitor 0.001 uM",875
same,SPAK kinase activity signal (Fig S3 source data),"GST–[T233E]SPAK kinase; ATP 1 mM, inhibitor 0.3 uM",714 and 703
same,SPAK kinase activity signal (Fig S3 source data),"GST–[T233E]SPAK kinase; ATP 1 mM, inhibitor 1 uM",504 and 558 and 522
same,SPAK kinase activity signal (Fig S3 source data),"GST–[T233E]SPAK kinase; ATP 1 mM, inhibitor 3 uM",489 and 412 and 459
same,SPAK kinase activity signal (Fig S3 source data),"GST–[T233E]SPAK kinase; ATP 1 mM, inhibitor 10 uM",406 and 421 and 391
same,SPAK kinase activity signal (Fig S3 source data),"GST–[T233E]SPAK kinase; ATP 1 mM, inhibitor 100 uM",356
same,SPAK kinase activity signal (Fig S3 source data),"GST–[T233E]SPAK kinase; ATP 1 mM, inhibitor 1000 uM",214 and 183

# — publication PMC6946680, “Modulation of brain cation-Cl^− cotransport via the SPAK kinase inhibitor ZT-1a” (Nature Communications, 2020)
